Test results reported in PubChem BioAssay AID2060489 (Molecular Pharmacology Branch, DTP, NCI, 2025).

Tested on: 922993-354-T-J3-PDC complex spheroids, viability
Assay: Anticancer human tumor 922993-354-T-J3-PDC patient-derived endometrial carcinoma cell line growth inhibition [GQUAD]
Details: for IC50: curve of first compound; for viability, T/C: stronger effect = lower value
Source text: DNA G-quadruplex Stabilizer Agents in Combinations in Complex Spheroids
A high-throughput screen of multi-cell type tumor spheroids was designed to identify active combinations of DNA G-quadruplex stabilizer agents and targeted small molecules. Complex spheroids include a stromal component modeled by human endothelial cells (HUVEC) and fibroblasts modeled by human mesenchymal stem cells (MSCs). The concentration ranges selected for each drug and investigational agent were based upon clinically achievable concentrations if the clinical Cmax of the agent was known.
Compounds. The drugs and investigational agents: pidnarulex (CX-5461; NSC782164), APTO-253 (NSC789042), BRACO-19 (NSC847499), peposertib (NSC802822), ceralasertib (NSC780249), elimusertib (NSC800525), camonsertib (NSC841442), AZD-1390 (NSC803789), olaparib (NSC753686), talazoparib (NSC767125), ART-558 (NSC835418), sotorasib (NSC818433), MRTX-1133 (NSC836407), SN-38 (NSC673596), topotecan (NSC609699), etoposide (NSC141540), doxorubicin (NSC123127), gemcitabine (NSC613327), 5-fluorouracil (NSC19893), paclitaxel (NSC125973), vemurafenib (NSC761431), panobinostat (NSC761190), R-306465 (JNJ-16241199; NSC773264), adavosertib (NSC754352), TP-3654 (NSC805149), carboplatin (NSC241240), KSQ-4279 (NSC840948), and staurosporine (NSC755774) were obtained from the National Cancer Institute (NCI) Developmental Therapeutics Program Chemical Repository (34). The FDA-approved anticancer drug set is available from the NCI Developmental Therapeutics Program. […] The stock solutions were prepared in dimethyl sulfoxide (DMSO, Sigma-Aldrich, St. Louis, MO, cat. D2650) at 800-fold the tested concentration and stored at -70 degrees C prior to their use. All drugs and investigational agents were tested over a range starting from a high concentration at or near the clinical Cmax and decreasing in half-log increments. If the clinical Cmax for an agent had not been determined, the highest concentration tested was 10 microM.
2.3 Cell Culture. All cells were maintained in an incubator at 37 degrees C and 5% CO2 with 95% humidity. The PDC lines were cultured according to standard operating procedures established by the NCI PDMR. All PDCs were thawed and cultured in Matrigel-coated flasks prepared with a working solution of 1X Ham's F-12 nutrient mix, without supplementation (Invitrogen, cat. 11765054), 100 U/mL penicillin-streptomycin (Invitrogen, cat. 15140122), and 2.5% Matrigel (Corning Inc., cat. 354248) for the first three passages. The 857933-349-R-J2-PDC line was cultured in 6C/Colon 1B media, which includes advanced DMEM/F-12 (Thermo Fisher Scientific, cat. 12634028), 10 mM HEPES (Thermo Fisher Scientific, cat. 15630080), 1X GlutaMAX supplement (Thermo Fisher Scientific, cat. 35050061), 0.1 mg/mL primocin (InvivoGen, cat. ant-pm-2), 10% defined fetal bovine serum, heat inactivated (HyClone Laboratories Inc., cat. SH30070.03HI), 50% L-WRN conditioned media (ATCC, cat. CRL-3276), 1.25 mM N-Acetyl-L-cysteine (Sigma-Aldrich, cat. A9165), 10 mM nicotinamide (Sigma-Aldrich, cat. N0636), 1X B-27 supplement (Thermo Fisher Scientific, cat. 17504044), 1X N-2 supplement (Thermo Fisher Scientific, cat. 17502048), 10 microM Y-27632 dihydrochloride (Tocris Bioscience, cat. 1254), and 50 ng/mL human EGF recombinant protein (Thermo Fisher Scientific, cat. PHG0311). The 485176-168-R4-J1-PDC line was cultured in Panc media, which includes all 6C/Colon 1B media components plus 100 ng/mL human FGF-10 (Thermo Fisher Scientific, cat. 100-26), 500 nM SB-431542 (Selleckchem, cat. S1067), and gastrin (Tocris, cat. 3006).
[…]
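Further: spheroids exposed to compounds for seven days.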
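Wherever viability, T/C is given: 100% = DMSO vehicle control viability.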

SMILES: C=CC(=O)N1CCN(c2nc(=O)n(-c3c(C)ccnc3C(C)C)c3nc(-c4c(O)cccc4F)c(F)cc23)C(C)C1 (configuration not stated) + CN(C)c1ccc(Nc2c3ccc(NC(=O)CCN4CCCC4)cc3nc3cc(NC(=O)CCN4CCCC4)ccc23)cc1
- IC50 (second compound 0.0316 µM): > 10 µM
- IC50 (second compound 0.1 µM): > 10 µM
- IC50 (second compound 0.316 µM): > 10 µM
- IC50 (second compound 1 µM): > 10 µM
- IC50 (second compound 3.16 µM): > 10 µM
- IC50 (second compound 10 µM): > 10 µM
- viability, T/C (second compound 0.0316 µM, first compound 0.0316 µM): 96.9%
- viability, T/C (second compound 0.0316 µM, first compound 0.1 µM): 84.8%
- viability, T/C (second compound 0.0316 µM, first compound 0.316 µM): 102%
- viability, T/C (second compound 0.0316 µM, first compound 1 µM): 104%
- viability, T/C (second compound 0.0316 µM, first compound 3.16 µM): 97%
- viability, T/C (second compound 0.0316 µM, first compound 10 µM): 119%
- viability, T/C (second compound 0.1 µM, first compound 0.0316 µM): 109%
- viability, T/C (second compound 0.1 µM, first compound 0.1 µM): 109%
- viability, T/C (second compound 0.1 µM, first compound 0.316 µM): 112%
- viability, T/C (second compound 0.1 µM, first compound 1 µM): 94.5%
- viability, T/C (second compound 0.1 µM, first compound 3.16 µM): 128%
- viability, T/C (second compound 0.1 µM, first compound 10 µM): 109%
- viability, T/C (second compound 0.316 µM, first compound 0.0316 µM): 112%
- viability, T/C (second compound 0.316 µM, first compound 0.1 µM): 120%
- viability, T/C (second compound 0.316 µM, first compound 0.316 µM): 96.7%
- viability, T/C (second compound 0.316 µM, first compound 1 µM): 128%
- viability, T/C (second compound 0.316 µM, first compound 3.16 µM): 103%
- viability, T/C (second compound 0.316 µM, first compound 10 µM): 104%
- viability, T/C (second compound 1 µM, first compound 0.0316 µM): 111%
- viability, T/C (second compound 1 µM, first compound 0.1 µM): 118%
- viability, T/C (second compound 1 µM, first compound 0.316 µM): 99.6%
- viability, T/C (second compound 1 µM, first compound 1 µM): 125%
- viability, T/C (second compound 1 µM, first compound 3.16 µM): 117%
- viability, T/C (second compound 1 µM, first compound 10 µM): 120%
- viability, T/C (second compound 3.16 µM, first compound 0.0316 µM): 107%
- viability, T/C (second compound 3.16 µM, first compound 0.1 µM): 128%
- viability, T/C (second compound 3.16 µM, first compound 0.316 µM): 107%
- viability, T/C (second compound 3.16 µM, first compound 1 µM): 139%
- viability, T/C (second compound 3.16 µM, first compound 3.16 µM): 137%
- viability, T/C (second compound 3.16 µM, first compound 10 µM): 117%
- viability, T/C (second compound 10 µM, first compound 0.0316 µM): 115%
- viability, T/C (second compound 10 µM, first compound 0.1 µM): 140%
- viability, T/C (second compound 10 µM, first compound 0.316 µM): 142%
- viability, T/C (second compound 10 µM, first compound 1 µM): 137%
- viability, T/C (second compound 10 µM, first compound 3.16 µM): 153%
- viability, T/C (second compound 10 µM, first compound 10 µM): 142%
